Test [1] has as its system arthritic joints of DMM mice. Kind of test: Ex vivo optical imaging of extracted hind limbs of DMM mice. The format is in vivo, C57BL/6N mice. On the procedure:
(§1) Male mice at 12 weeks of age were divided into three groups: Sham-ApoPep-1, OA-Control Peptide and OA-ApoPep-1 group (n=4-8/group). For OA model, we performed DMM surgery as described in previous studies (8, 23).
(§2) FlammaTM675-ApoPep-1 was intravenously (i.v.) injected from the tail vain (1 mM 100 μl/20 g) and allowed to circulate for the indicated time periods. In vivo optical imaging was conducted by scanning the mice under anesthesia by inhalation of isofluran (jw pharmaceutical, South Korea) in 80% N2O/20% O2 using Optix Explore (ART, Montreal, Canada). The excitation/emission wavelengths for FlammaTM675 were 676 nm/704 nm. Ex vivo optical imaging was performed with extracted hind limbs by the same method. FlammaTM675-NSSSVDK was used as the control peptide (18).

For test [2], the system named is ATDC5 chondrocyte cell treated with staurosporine. Kind of test: In vitro binding to apoptotic chondrocytes (immunocytochemistry). Conditions: fluorescence staining; for binding to apoptotic cells: chondrocytes treated with staurosporine; for binding to live cells: live chondrocytes. The format is cell-based. Here is the method: ATDC5 chondrocyte cell was maintained in a mixture of DMEM and Ham's F-12 (DMEM/F12) medium (Lonza, USA) containing 5% fetal bovine serum (FBS) (Gibco-BRL, USA), 10 ug/ml of human transferrin (Sigma) and 3×10^-8 M of sodium selenite (Sigma) and penicillin/streptomycin. Apoptosis was induced by incubating cells with 0.5 uM Staurosporine (cell signaling, USA) for the indicated time periods. Apoptotic stages were determined by staining the cells with annexin V and ApoPep-1 conjugated with flamma 675. For immunocytochemistry staining, cells were incubated with 1% bovine serum albumin at 37° C. for 30 min for blocking and then binding with 10 μM flamma 675-conjugated peptide at 4° C. for 1 h. Cells were then costained with Alexa-594-annexin V (Invitrogen, Carlsbad, Calif., USA) for 15 min at room temperature in binding buffer (10 mM HEPES, pH 7.4, 140 mM NaCl, and 2.5 mM CaCl2). After fixation, cells were incubated with DAPI for nuclear staining and mounted with a ProLong® Antifade Kit.

Test [3] concerns apoptotic chondrocytes of DMM-operated articular cartilage. As to the kind of experiment: In situ immunofluorescence staining and TUNEL assay of OA cartilage cryo-sections. More on the design: species or system mice. Here is the method:
Hind limbs of mice were fixed with 4% paraformaldehyde in 0.1 M phosphate-buffered saline (PBS, pH 7.4) for 12 hours, and decalcified with 10% ethylene-diamine tetraacetic acid (EDTA, pH 7.4) for 3 weeks. Decalcified tissues were dipped in 20% sucrose/PBS solution overnight and embedded in OCT compound (Tissue-Tek) for making the frozen samples. Frozen samples were cut at 10 μm thickness from femur to tibia range for joint visible. Cut slices from each animal were selected for the staining with same primary antibodies to comparison at the same area of joint articular cartilage. The section was treated with a blocking solution (0.1% tween-20, 1% bovine serum albumin (BSA), 5% normal donkey serum in PBS) after washing with PBS, and then incubated at 4° C. 1 h with the primary antibodies such as rabbit polyclonal collagen 2 antibody (1:200; abcam, MA, USA), mouse monoclonal MMP-13 antibody (1:200; abcam, MA, USA). After PBS rinses, the sections were incubated with Alexa-594 or Alexa-488-conjugated secondary antibody for 30 min. Thereafter, the sections were incubated with 4′,6′-diamidino-2-phenylindole (DAPI, Sigma-Aldrich, St Louis, Mo., USA) for nuclear staining then mounted with a ProLong® Antifade Kit (Invitrogen, USA). […]

In test [4] the test system is arthritic joints of DMM mice. As to the kind of experiment: In vivo optical imaging of fluorescence-labeled ApoPep-1 probe in DMM OA mice. Further details: species or system C57BL/6N mice. Conditions: for OARSI grade of OA at which the probe detects OA / apoptotic chondrocytes: DMM model. Here is the method:
as §1, §2

Entries after “also recorded” stand apart in the source; their conditions may differ.

The text below walks through data of patent US20160000938A1, “REAGENT FOR DIAGNOSIS OF OSTEOARTHRITIS COMPRISING PEPTIDE PROBE OF APOPEP-1” (priority 2013, published 2016).

Regarding CQRPPR [ApoPep-1], the “ApoPep-1 fluorescent signal from arthritic joints” value is on record as “maximal” in test [1] (4 weeks after DMM operation) and “maximal” in test [4] (in vivo, i.v. injection, 4 weeks after DMM operation). Besides, the “ApoPep-1 fluorescent signal from arthritic joints compared with sham-ApoPep-1 and OA-control-Peptide groups” value in test [1] (two weeks after DMM operation) is on record as “significant increase”; in test [4] (in vivo, i.v. injection, one week after DMM operation), “no significant difference”; in test [4] (in vivo, i.v. injection, two weeks after DMM operation) it was “detected strongly; also recorded: significant increase”. Moreover, the “binding to apoptotic cells” value in test [2] is “bind to apoptotic cells”. Besides, the “binding to live cells” value in test [2] is listed as “not to live cells”. Also, the “correlation of TUNEL staining with ApoPep-1 signals” value in test [3] (DMM models 2 weeks after surgery) is given as “strongly correlated”. For the same substance, the “localisation of ApoPep-1 relative to type II collagen and MMP13” value in test [3] (DMM-operated articular cartilage, 2 weeks after surgery) is “detected where type II collagen decreased and MMP13 increased”. Further, the “time after DMM operation at which the probe can detect apoptotic change” value in test [4] (DMM OA model) is reported as 2 weeks. The “OARSI grade of OA at which the probe detects OA / apoptotic chondrocytes” value in test [4] is “grade I OA; also recorded: Grades I”; in test [4] (listed as ApoPep1) it was “Grade II”. In test [4] (i.v. injection, 8 weeks after DMM operation), the “ApoPep-1 fluorescent signal from arthritic joints compared with 4 weeks” value is “reduced”. Besides, the “optimal time point for diagnosis after injection” value in test [4] (i.v. injection, DMM mice) came to 30 min. Besides, the “time after injection after which ApoPep-1 binding is undetectable” value in test [4] (i.v. injection, DMM mice) stood at 8 h. Further, in test [4] (i.v. injection, DMM mice), the “time after injection of maximal ApoPep-1 binding” value worked out at 30 min. In addition, the “fluorescent signal time course after probe injection” value in test [4] (images from 30 minutes to 24 hours after i.v. administration, DMM mice) was “clearly detectable from arthritic joint sat 30 minutes after the probe injection and decreased according to time course”.

For “annexin V: a 36 kDa protein that binds to phosphatidylserine, early marker of apoptotic cell death [reference compound]”, in test [2], the “binding to apoptotic cells” value is listed as “bind to apoptotic cells” and the “binding to live cells” value is reported as “not to live cells”.
